This note sets out measurements from patent US20010034345A1, “METHODS OF ADMINSTERING AN AMPA RECEPTOR ANTAGONIST TO TREAT DYSKINESIAS ASSOCIATED WITH DOPAMINE AGONIST THERAPY” (priority 1997, published 2001).

The subject of data set [1] is choreic dyskinesia induced by dopamine agonist. Nature of the data set: In vivo model for dyskinesias associated with dopamine agonist therapy (MPTP parkinsonian monkeys). The following applies: 0.3 mg/kg sc.; one MPTP parkinsonian monkey, dyskinesias induced by chronic L-DOPA followed by PHNO. On the procedure:
The following procedure may be used to assess the efficacy of an AMPA receptor antagonist in the treatment of dyskinesias associated with dopamine agonist therapy in the treatment of Parkinson's disease. Aged, female rhesus monkeys are rendered Parkinsonian as follows. Each monkey is first infused with 0.4 mg/kg MPTP (1-methyl-4-phenyl-1,2,3,6-tetrahydropyridine) via the right internal carotid artery. After being evaluated behaviorally for 3 to 6 weeks and being judged to have stable unilateral deficits, the animals receive a second MPTP injection via the left internal carotid artery. […] Once the monkeys are Parkinsonian, dyskinesias are induced over a period of approximately 3 to 6 weeks by treating the monkeys twice daily with subcutaneous injections of PHNO ((+)-4-propyl-9-hydroxynaphthoxazine) (a dopamine agonist). Dyskinesias are assessed 30 minutes after PHNO injection and every 30 minutes for the next 120 minutes (5 measurements) taking into account the following: type of dyskinesia (chorea, dystonia); intensity (0=absent; 1=mild; 2=moderate; 3=severe); and topography (arm, leg, trunk, generalized). The overall score (0-3) is averaged over the 5 measurements. Scoring is performed blindly from coded videotapes. An AMPA receptor antagonist is then administered together with the dopamine agonist at dosages ranging from 0.05 mg/kg to 1 mg/kg. […]

The subject of data set [2] is behavior of monkeys (MPTP-treated or untreated). Nature of the data set: Behavioral effect in other monkeys (MPTP-treated or untreated). In kind it is in vivo, monkey. As to conditions: 0.3 mg/kg sc. The method, then:
Monkeys were made parkinsonian by intracarotid injection of the dopamine neuron toxin MPTP. Choreic and dystonic dyskinesias were induced in one monkey by chronic administration of L-DOPA followed by the selective D2 agonist PHNO. 3-(2-chloro-phenyl)-2-[2(6-diethylaminomethyl-pyridin-2-yl)-vinyl]-6-fluoro-3H-quinazolin-4-one (0.3 mg/kg sc.) reduced by 80% the choreic dyskinesia induced by dopamine agonist.

For the compound `CCN(CC)Cc1cccc(C=Cc2nc3ccc(F)cc3c(=O)n2-c2ccccc2Cl)n1` [3-(2-chloro-phenyl)-2-[2-(6-diethylaminomethyl-pyridin-2-yl)-vinyl]-6-fluoro-3H-quinazolin-4-one], in data set [1], the “reduction of choreic dyskinesia induced by dopamine agonist” value was found to be 80%. For the same compound, the behavioral effect entry in data set [2] is on record as “little or no behavioral effect”.
